Assay results taken from patent US6355799B1, “Substituted benzene compounds, process for their preparation, and herbicidal and defoliant compositions containing them” (ISK Americas Incorporated, priority 1997, dated 2002).

What was measured:
Assay type in all cases: in vivo
[1] = test system: redroot pigweed (Amaranthus retroflexus, AMARE); test: Pre-emerge test, greenhouse herbicide activity screening; conditions: rating scale 0-100, 14 days after application
How it was run: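 Rating: 0–100 visual injury, 14 DAA. Application: acetone, 187 l/ha, 15–1000 g ai/ha, flat-fan track sprayer with nozzle 40–45 cm above soil or canopy. Post-emerge runs used 0.25% v/v surfactant on 2–3 leaf plants.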

[2] = test system: barnyardgrass (Echinochloa crus-galli, ECHCG); test: as above; conditions: rating scale 0-100, 14 days after application
How it was run: (§1)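 Applied at 15–1000 g ai/ha from acetone in 187 l/ha spray volume. Post-emergence applications included 0.25% v/v non-ionic surfactant and reached plants sown 8–21 days before. Pre-emergence applications were incorporated by surface watering. Efficacy or crop damage was rated on a 0–100 scale after 14 days.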

[3] = test system: green foxtail (Setaria viridis, SETVI); test: as above; conditions: rating scale 0-100, 14 days after application
How it was run: as §1

[4] = test system: ivyleaf morningglory (Ipomoea hederacea, IPOHE); test: as above; conditions: rating scale 0-100, 14 days after application
How it was run: as §1

[5] = test system: johnsongrass (Sorghum halepense, SORHA); test: as above; conditions: rating scale 0-100, 14 days after application
How it was run: as §1

[6] = test system: lambsquarters (Chenopodium album, CHEAL); test: as above; conditions: rating scale 0-100, 14 days after application
How it was run: as §1

[7] = test system: large crabgrass (Digitaria sanguinalis, DIGSA); test: as above; conditions: rating scale 0-100, 14 days after application
How it was run: as §1

[8] = test system: sicklepod (Cassia obtusifolia, CASOB); test: as above; conditions: rating scale 0-100, 14 days after application
How it was run: as §1

[9] = test system: velvetleaf (Abutilon theophrasti, ABUTH); test: as above; conditions: rating scale 0-100, 14 days after application
How it was run: as §1

[10] = test system: field corn (Zea mays L., var. Dekalb 535, CORN); test: Pre-emerge test, crop safety; conditions: rating scale 0-100, 14 days after application
How it was run: (§2)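 Fourteen days after spraying, crop and weed injury was graded visually from 0, no effect, to 100, every plant dead. Test substances were dissolved in acetone and applied at 15–1000 g ai/ha with a flat-fan nozzle. Application was either pre-emergence, one day after sowing, or post-emergence at the 2–3 leaf stage.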

[11] = test system: upland rice (Oryza sp., var. Tebonnet, RICE); test: Pre-emerge test, crop safety; conditions: rating scale 0-100, 14 days after application
How it was run: as §2

[12] = test system: barnyardgrass (Echinochloa crus-galli, ECHCG); test: Post-emerge test, greenhouse herbicide activity screening; conditions: rating scale 0-100 (0 no damage, 100 complete death), 14 days after application
How it was run: (§3)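 Sandy loam pots; pre-emerge: sown 1 d pre-spray, surface-watered after, then bottom-watered. Post-emerge: sown 8–21 d before, 2–3 leaf stage, + 0.25% v/v NIS, bottom-watered. Acetone, 187 l/ha track spray, 15–1000 g ai/ha. 0–100 injury score, day 14.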

[13] = test system: common ragweed (Ambrosia artemisizfolia L., AMBEL); test: as above; conditions: rating scale 0-100 (0 no damage, 100 complete death), 14 days after application
How it was run: as §3

[14] = test system: green foxtail (Setaria viridis, SETVI); test: as above; conditions: rating scale 0-100 (0 no damage, 100 complete death), 14 days after application
How it was run: as §3

[15] = test system: ivyleaf morningglory (Ipomoea hederacea, IPOHE); test: as above; conditions: rating scale 0-100 (0 no damage, 100 complete death), 14 days after application
How it was run: as §3

[16] = test system: johnsongrass (Sorghum halepense, SORHA); test: as above; conditions: rating scale 0-100 (0 no damage, 100 complete death), 14 days after application
How it was run: as §3

[17] = test system: lambsquarters (Chenopodium album, CHEAL); test: as above; conditions: rating scale 0-100 (0 no damage, 100 complete death), 14 days after application
How it was run: as §3

[18] = test system: large crabgrass (Digitaria sanguinalis, DIGSA); test: as above; conditions: rating scale 0-100 (0 no damage, 100 complete death), 14 days after application
How it was run: as §3

[19] = test system: redroot pigweed (Amaranthus retroflexus, AMARE); test: as above; conditions: rating scale 0-100 (0 no damage, 100 complete death), 14 days after application
How it was run: as §3

[20] = test system: sicklepod (Cassia obtusifolia, CASOB); test: as above; conditions: rating scale 0-100 (0 no damage, 100 complete death), 14 days after application
How it was run: as §3

[21] = test system: velvetleaf (Abutilon theophrasti, ABUTH); test: as above; conditions: rating scale 0-100 (0 no damage, 100 complete death), 14 days after application
How it was run: as §3

[22] = test system: field corn (Zea mays L., var. Dekalb 535, CORN); test: Post-emerge test, crop safety; conditions: rating scale 0-100 (0 no damage, 100 complete death), 14 days after application
How it was run: as §1

[23] = test system: upland rice (Oryza sp., var. Tebonnet, RICE); test: Post-emerge test, crop safety; conditions: rating scale 0-100 (0 no damage, 100 complete death), 14 days after application
How it was run: as §1

With `COc1c(Cl)cc(F)c(-n2c(=O)cc(C(F)(F)F)n(C)c2=O)c1CC(C)(Cl)C(=O)OCC(F)(F)C(F)F` (stereo not shown) [14-45] the “Pre-emerge herbicidal activity, phytotoxicity rating AMARE” value ([1]; 63 g ai/ha) was 100, the “Pre-emerge herbicidal activity, phytotoxicity rating AMARE” value ([1]; 250 g ai/ha) was 100 and the “Pre-emerge herbicidal activity, phytotoxicity rating ECHCG” value ([2]; 63 g ai/ha) was 0. The “Pre-emerge herbicidal activity, phytotoxicity rating ECHCG” value ([2]; 250 g ai/ha) was 80, the “Pre-emerge herbicidal activity, phytotoxicity rating SETVI” value ([3]; 63 g ai/ha) was 0 and the “Pre-emerge herbicidal activity, phytotoxicity rating SETVI” value ([3]; 250 g ai/ha) was 95. For the same compound, the “Pre-emerge herbicidal activity, phytotoxicity rating IPOHE” value ([4]; 63 g ai/ha) was 0, the “Pre-emerge herbicidal activity, phytotoxicity rating IPOHE” value ([4]; 250 g ai/ha) was 0 and the “Pre-emerge herbicidal activity, phytotoxicity rating SORHA” value ([5]; 63 g ai/ha) was 0. The “Pre-emerge herbicidal activity, phytotoxicity rating SORHA” value ([5]; 250 g ai/ha) was 50, the “Pre-emerge herbicidal activity, phytotoxicity rating CHEAL” value ([6]; 63 g ai/ha) was 95 and the “Pre-emerge herbicidal activity, phytotoxicity rating CHEAL” value ([6]; 250 g ai/ha) was 100. The “Pre-emerge herbicidal activity, phytotoxicity rating DIGSA” value ([7]; 63 g ai/ha) was 30, the “Pre-emerge herbicidal activity, phytotoxicity rating DIGSA” value ([7]; 250 g ai/ha) was 99 and the “Pre-emerge herbicidal activity, phytotoxicity rating CASOB” value ([8]; 63 g ai/ha) was 0. For the same compound, the “Pre-emerge herbicidal activity, phytotoxicity rating CASOB” value ([8]; 250 g ai/ha) was 0, the “Pre-emerge herbicidal activity, phytotoxicity rating ABUTH” value ([9]; 63 g ai/ha) was 100 and the “Pre-emerge herbicidal activity, phytotoxicity rating ABUTH” value ([9]; 250 g ai/ha) was 100. The “Pre-emerge phytotoxicity rating, crop damage CORN” value ([10]; 63 g ai/ha) was 0, the “Pre-emerge phytotoxicity rating, crop damage CORN” value ([10]; 250 g ai/ha) was 10 and the “Pre-emerge phytotoxicity rating, crop damage RICE” value ([11]; 63 g ai/ha) was 10. For the same compound, the “Pre-emerge phytotoxicity rating, crop damage RICE” value ([11]; 250 g ai/ha) was 80, the “Post-emerge Herbicidal Activity, phytotoxicity rating ECHCG” value ([12]; Rate 63 g ai/ha) was 100 and the “Post-emerge Herbicidal Activity, phytotoxicity rating ECHCG” value ([12]; Rate 250 g ai/ha) was 100. The “Post-emerge Herbicidal Activity, phytotoxicity rating AMBEL” value ([13]; Rate 63 g ai/ha) was 100, the “Post-emerge Herbicidal Activity, phytotoxicity rating AMBEL” value ([13]; Rate 250 g ai/ha) was 100 and the “Post-emerge Herbicidal Activity, phytotoxicity rating SETVI” value ([14]; Rate 63 g ai/ha) was 70. For the same compound, the “Post-emerge Herbicidal Activity, phytotoxicity rating SETVI” value ([14]; Rate 250 g ai/ha) was 95, the “Post-emerge Herbicidal Activity, phytotoxicity rating IPOHE” value ([15]; Rate 63 g ai/ha) was 100 and the “Post-emerge Herbicidal Activity, phytotoxicity rating IPOHE” value ([15]; Rate 250 g ai/ha) was 100. The “Post-emerge Herbicidal Activity, phytotoxicity rating SORHA” value ([16]; Rate 63 g ai/ha) was 70, the “Post-emerge Herbicidal Activity, phytotoxicity rating SORHA” value ([16]; Rate 250 g ai/ha) was 90 and the “Post-emerge Herbicidal Activity, phytotoxicity rating CHEAL” value ([17]; Rate 63 g ai/ha) was 100. The “Post-emerge Herbicidal Activity, phytotoxicity rating CHEAL” value ([17]; Rate 250 g ai/ha) was 100, the “Post-emerge Herbicidal Activity, phytotoxicity rating DIGSA” value ([18]; Rate 63 g ai/ha) was 90 and the “Post-emerge Herbicidal Activity, phytotoxicity rating DIGSA” value ([18]; Rate 250 g ai/ha) was 100. For the same compound, the “Post-emerge Herbicidal Activity, phytotoxicity rating AMARE” value ([19]; Rate 63 g ai/ha) was 100, the “Post-emerge Herbicidal Activity, phytotoxicity rating AMARE” value ([19]; Rate 250 g ai/ha) was 100 and the “Post-emerge Herbicidal Activity, phytotoxicity rating CASOB” value ([20]; Rate 63 g ai/ha) was 30. The “Post-emerge Herbicidal Activity, phytotoxicity rating CASOB” value ([20]; Rate 250 g ai/ha) was 30, the “Post-emerge Herbicidal Activity, phytotoxicity rating ABUTH” value ([21]; Rate 63 g ai/ha) was 100 and the “Post-emerge Herbicidal Activity, phytotoxicity rating ABUTH” value ([21]; Rate 250 g ai/ha) was 100. The “Post-emerge phytotoxicity rating CORN (crop damage)” value ([22]; Rate 63 g ai/ha) was 70, the “Post-emerge phytotoxicity rating CORN (crop damage)” value ([22]; Rate 250 g ai/ha) was 100 and the “Post-emerge phytotoxicity rating RICE (crop damage)” value ([23]; Rate 63 g ai/ha) was 70. The “Post-emerge phytotoxicity rating RICE (crop damage)” value ([23]; Rate 250 g ai/ha) was 100.
